Data as given in paper PMC3680490, “Fragment-Based Screening Maps Inhibitor Interactions in the ATP-Binding Site of Checkpoint Kinase 2” (PLoS ONE, 2013).
Marks after values point to notes of the source that are not given here.

Legend:
[1] = cited from earlier work
[2] = test system: ovarian cancer cell lines; settings: cited from earlier work
full-length CHK2 [3] = biological target: T1, full-length CHK2 (Homo sapiens, UniProt O96017); experiment: High-concentration AlphaScreen kinase assay (phosphorylation of CDC25C peptide); type: biochemical; settings: for inhibition at 300 µM: primary screening data, compound concentration 300 µM, mean ± SD of triplicate, read-out: AlphaScreen™ (percentage inhibition)
T1 construct: full-length human CHK2 (residues 1 to 543); 6xHis (N); made in house; host or cells: Sf9 insect cells (baculovirus)
T1 sequence (O96017 whole entry, the tested form may be a part): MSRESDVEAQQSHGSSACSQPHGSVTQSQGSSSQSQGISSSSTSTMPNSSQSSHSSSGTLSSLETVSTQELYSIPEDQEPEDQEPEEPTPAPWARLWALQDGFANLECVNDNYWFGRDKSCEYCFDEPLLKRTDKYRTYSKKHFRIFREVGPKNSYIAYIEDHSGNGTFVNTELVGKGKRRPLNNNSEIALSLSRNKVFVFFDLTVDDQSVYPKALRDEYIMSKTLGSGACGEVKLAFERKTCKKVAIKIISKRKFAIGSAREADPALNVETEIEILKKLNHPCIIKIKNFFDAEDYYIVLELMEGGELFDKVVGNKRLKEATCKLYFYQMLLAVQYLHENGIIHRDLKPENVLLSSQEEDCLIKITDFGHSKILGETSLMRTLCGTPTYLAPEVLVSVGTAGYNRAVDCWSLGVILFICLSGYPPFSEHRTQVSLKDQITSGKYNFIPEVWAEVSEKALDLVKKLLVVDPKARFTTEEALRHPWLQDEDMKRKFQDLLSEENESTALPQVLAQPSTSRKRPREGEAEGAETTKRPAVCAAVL
Method: To identify fragments binding in the ATP-binding-site of CHK2, we screened the in-house fragment library consisting of 1869 compounds, as described above, against full-length CHK2 using an AlphaScreen™ kinase assay, in which inhibition of full-length CHK2 was measured by a reduction in the phosphorylation of a CDC25C peptide (Figure S1). Because of the generally weak affinity of fragments, the assay was carried out at a high compound concentration (300 µM). […] All 45 hits were confirmed by re-assaying them under the same conditions. To eliminate potential false positives due to aggregation of poorly soluble fragments, or owing to interference with the AlphaScreen™ signal, the hits were assayed by including 0.01% (v/v) Triton™ X-100 in the assay buffer, and in the presence of phosphorylated rather than unphosphorylated peptide substrate, respectively. The average robust Z’ for the confirmation assays was 0.9. […] The final confirmed hit rate for the assay was 1.1%.
Full-length CHK2 was screened against the ICR fragment library consisting of 1869 fragments using a biochemical assay based on AlphaScreen™ technology in which the CHK2 kinase activity was measured by monitoring the phosphorylation of a CDC25C peptide using a phospho-specific antibody. Assay conditions were similar to those described by Hilton et al., but all fragments were screened at a final concentration of 300 µM. Amendments to the protocol included a change in the full-length CHK2 concentration to 2 nM and a final concentration of the antibody against phosphorylated CDC25C of 0.5 nM. For a positive control, 4-(2-amino-5-(thiophen-3-yl)pyridin-3-yl)benzoic acid (27, Figure S4, referred to as compound 19 in Hilton et al.) was added at a final concentration of 10 µM. The phosphorylation reaction was performed for 80 min at room temperature and stopped by the addition of 5 µL of the previously described detection buffer. Plates were incubated overnight at room temperature and in the dark, and the assay endpoint was measured using an Envision™ 2103 multilabel reader (Perkin Elmer Life Sciences, Seer Green, UK). Primary screening data were analyzed in ActivityBase (IDBS, Guildford, UK). Percentage inhibition was calculated as follows: 100*(1–(S–B)/(T–B)), where S represented the counts for each compound well, B the counts in the wells containing no enzyme, and T the counts in the total activity wells. The plates were assayed in triplicate and fragments with a percentage inhibition of 50% or more in at least two out of the three measurements were defined as initial hits. Initial hits were re-assayed under the same conditions in triplicate for reconfirmation. Furthermore, all hits were tested for interference by repeating the assay in the presence of phosphorylated rather than unphosphorylated peptide substrate, and for aggregation by including 0.01% (v/v) Triton™ X-100 in the assay buffer.

full-length CHK2 [4] = biological target: T1, full-length CHK2; experiment: Microfluidic mobility shift assay for IC50 determination; type: biochemical; settings: for Ligand Efficiency: calculated using mean mobility shift IC50; for IC50: mean ± SD of triplicate
Method: In addition, percentage inhibition and IC50 values for all follow-up compounds were determined in triplicate using this assay. […] An ECHO® 550 acoustic dispenser (Labcyte Inc™, Dublin, Ireland) was used to generate duplicate eight-point dilution curves directly into 384-well low-volume polystyrene assay plates (Corning Life Sciences, New York, USA). For each compound, a 10 mM stock concentration in 100% DMSO was used.
The plate was sealed and centrifuged for 1 min at 1000 rpm before incubation for 1 h at room temperature.
IC50 values were calculated from a four-parameter logistics fit of percentage inhibition versus concentration using the Studies package (from Dotmatics, Bishops Stortford, UK).

[5] = biological target: T2, kinase domain of CHK2 (CHK2-KD, residues 210-531) (Homo sapiens, UniProt O96017); experiment: Thermal shift assay (SYPRO Orange); type: binding; settings: for T m, ligand (standard deviations from the plate mean): highest value of two independent measurements, 2 mM fragment; for ΔT m, ligand: mean of two independent measurements, 2 mM ligand
T2 construct: The kinase domain of CHK2 (residues 210-531) was produced as a GST-fusion protein; GST (cleaved yes); made in house
T2 sequence (O96017 210-531): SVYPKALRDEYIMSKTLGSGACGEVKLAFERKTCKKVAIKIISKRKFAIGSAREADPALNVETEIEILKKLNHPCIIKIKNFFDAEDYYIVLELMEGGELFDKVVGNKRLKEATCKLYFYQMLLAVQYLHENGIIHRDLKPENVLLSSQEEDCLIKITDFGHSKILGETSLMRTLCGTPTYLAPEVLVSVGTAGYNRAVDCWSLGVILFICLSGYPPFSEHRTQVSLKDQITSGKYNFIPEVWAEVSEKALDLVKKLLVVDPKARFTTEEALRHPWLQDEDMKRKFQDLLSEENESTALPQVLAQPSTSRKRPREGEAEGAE
Method: In parallel, we screened the fragment library against the kinase domain of CHK2 (CHK2-KD, residues 210-531) using a thermal shift assay. In a thermal shift assay, the folding stability of a target protein is measured by its thermally-induced unfolding. An increase in melting temperature of a protein in the presence of a ligand is used to identify ligand binding, assuming that the bound ligand stabilizes the target protein and therefore increases the energy required for its thermal unfolding. The thermal unfolding of CHK2-KD was measured using the fluorescent dye SYPRO® Orange™, which is sensitive to its environment and preferentially binds to hydrophobic patches that are typically exposed upon protein unfolding. To identify the hit threshold, we calculated the standard deviation (SD) of the melting temperature of CHK2 in the presence of a ligand (T m, ligand) for each plate. Ligands with a T m, ligand value of more than 2 standard deviations above the mean T m, ligand for each plate in at least one of the duplicates were defined as hits. We calculated the mean change in melting temperature from duplicate measurements (ΔT m, ligand) by subtracting the mean melting temperature of six reference samples of protein without ligand (T m, 0) from the melting temperature of CHK2 samples with ligand (T m, ligand).
Thermal shift screening of the ICR fragment library against a truncated version of CHK2 comprising only the kinase domain (CHK2-KD), was carried out using an Opticon 2 RT-PCR machine (Bio-Rad, Hemel Hempstead, UK). […] All experiments were performed in white 96-well SuperPlate skirted PCR-plates (ABgene®, Thermo Scientific, Loughborough, UK). Fragments were screened at a final concentration of 2 mM in assay buffer containing a final concentration of 2% (v/v) DMSO and all measurements were carried out in duplicate. The well contents were mixed by centrifugation for 2 min at 500 g and pre-equilibrated for 5 min at 20°C before starting the thermal shift experiment. All melting curves were generated from 20°C to 95°C, raising the temperature in steps of 0.5°C and keeping it constant for 15 seconds at each step. […] MgATP (2 mM ATP and 5 mM MgCl2) in the presence of 2% (v/v) DMSO was used as a positive control. For each experiment, the data range of the protein unfolding transition was established using the Excel-based worksheet ‘DSF Analysis’, made available by the Structural Genomics Consortium (SGC), Oxford, and subsequently fitted with a Boltzmann sigmoidal equation using GraphPad Prism version 5 (GraphPad Software, San Diego, California, USA, www.graphpad.com), from which the melting temperature T m was calculated. The change in melting temperature caused by ligand binding, expressed as the mean from duplicate measurements (ΔT m, ligand), was calculated by subtracting T m, 0 from each melting temperature obtained in the presence of a ligand (T m, ligand) using the DSF-analysis spreadsheet. The hit threshold was determined by calculating the standard deviation (SD) of the melting temperatures of CHK2 in the presence of ligand (T m, ligand) for every plate. Ligands with a T m, ligand>mean(T m, ligand) +2SD in at least one of the duplicates were defined as hits.

CHK1 = biological target: T3, CHK1 (Homo sapiens, UniProt O14757); experiment: CHK1 mobility shift assay; type: biochemical; settings: inactive
T3 sequence (O14757 1-476): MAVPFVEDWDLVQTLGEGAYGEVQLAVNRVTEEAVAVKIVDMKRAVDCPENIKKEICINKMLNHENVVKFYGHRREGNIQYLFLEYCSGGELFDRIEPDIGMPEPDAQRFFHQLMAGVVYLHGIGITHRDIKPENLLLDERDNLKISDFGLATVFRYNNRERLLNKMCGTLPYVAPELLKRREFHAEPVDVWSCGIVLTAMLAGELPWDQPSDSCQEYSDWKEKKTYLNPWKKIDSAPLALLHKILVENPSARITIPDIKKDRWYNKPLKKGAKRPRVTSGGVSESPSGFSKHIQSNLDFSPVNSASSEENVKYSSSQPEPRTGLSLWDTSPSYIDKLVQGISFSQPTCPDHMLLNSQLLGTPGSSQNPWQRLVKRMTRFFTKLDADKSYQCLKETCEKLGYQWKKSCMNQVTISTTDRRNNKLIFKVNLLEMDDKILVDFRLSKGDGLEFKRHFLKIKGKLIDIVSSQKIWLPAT
Excerpt: However, it is very difficult to assess the contribution to selectivity of binding in this pocket using the inhibitor 26, because its CHK2 selectivity is most likely dominated by the unusual binding of the benzamidazole scaffold to the hinge through a mediating water molecule.

cancer cell lines = test system: cancer cell lines; design: method as in PMID 19741151; settings: cited from earlier work
[6] = follow-up compounds from similarity search (Table 2)

| Structure (SMILES) | inhibition at 300 µM (full-length CHK2 [3]) [%] | Ligand Efficiency (full-length CHK2 [4]; Table 1) [kcal mol^−1 HA^−1] | IC50 (full-length CHK2 [4]; fragment hits, 100 µM ATP) [µM] | T m, ligand (standard deviations from the plate mean) [5] [standard deviations] | ΔT m, ligand [5] | further results |
| --- | --- | --- | --- | --- | --- | --- |
| COc1cc2nc(-c3cc(F)ccc3O)nc(N[C@@H]3CNC[C@H]3C(C)(C)O)c2cc1OC [CCT241533] | – | – | – | – | – | Potentiation of the cytotoxicity of PARP inhibitors such as AG14447 and olaparib [1]: potentiates the cytotoxicity; Potentiation in combination with genotoxic agents [2]: no such effects have been observed |
| c1ccc2c(c1)[nH]c1ncnn12 [Compound 11] | 91.4 ± 0.4 | 0.64 | 2.7 ± 0.2 | 5.8 | 7.0±0.8 °C | – |
| C/C(=N/O)c1ccc(O)cc1O [Compound 12] | 58.2 ± 1.7 | 0.47 | 85.6 ± 7.9 | 2.9 | 3.0 ^f °C | – |
| O=C(NCc1ccco1)c1ccc2nccnc2c1 [Compound 13] | 76.1 ± 1.1 | 0.36 | 11.7 ± 2 | 5.7 | 5.6±0.3 °C | IC50 (CHK1): > 200 µM |
| CC(C)(C)NC(=O)Nc1ccc2nccnc2c1 [Compound 14] | 59.5 ± 1.9 | 0.34 | 36.9 ± 9 | 4.3 | 4.5±0.02 °C | – |
| Cc1ccc2ncnc(N)c2c1 [Compound 15] | 72.8 ± 6.7 | 0.55 | 15.9 ± 1.1 | 4.6 | 5.0±0.6 °C | – |
| Cc1cc(-c2ccccc2)n[nH]1 [Compound 16] | 56.1 ± 1 | – | – | 3.7 | 2.6±1.7 °C | – |
| Nc1cc(-c2cccnc2)n[nH]1 [Compound 17] | 71.5 ± 25.5 | 0.47 | 76.2 ± 3.3 | 4.2 | 3.7±0.9 °C | – |
| Cc1n[nH]c(N)c1-c1cccs1 [Compound 18] | 60.9 ± 2.1 | 0.47 | 76.8 ± 1.4 | 4.6 | 3.9±1.3 °C | – |
| CC(=O)N1CCC(C(=O)Nc2ccc(C)cn2)CC1 [Compound 19] | 34.7 ± 0.93 | 0.26 | 228 ± 22.2 | 5.7 | 4.0±0.6 °C | – |
| c1coc(-c2ccnc3[nH]nc(C4CC4)c23)c1 [Compound 20] | – | – | – | – | – | Ligand Efficiency (full-length CHK2 [4]; Table 2): 0.42 kcal mol^−1 HA^−1; IC50 (full-length CHK2 [4]; [6]): 7.2 ± 2.9 µM |
| c1cncc(-c2n[nH]c3ccnc(-c4cccs4)c23)c1 [Compound 21] | – | – | – | – | – | Ligand Efficiency (full-length CHK2 [4]; Table 2): 0.32 kcal mol^−1 HA^−1; IC50 (full-length CHK2 [4]; [6]): 21.3 ± 2.1 µM |
| COc1ccc(CNC(=O)c2ccc3nccnc3c2)cc1 [Compound 22] | – | – | – | – | – | Ligand Efficiency (full-length CHK2 [4]; Table 2): 0.34 kcal mol^−1 HA^−1; IC50 (full-length CHK2 [4]; [6]): 3.6 ± 1.2 µM; IC50 (CHK1): > 200 µM |
| CCOC(=O)N1CCN(C(=O)Nc2ccc3nccnc3c2)CC1 [Compound 23] | – | – | – | – | – | Ligand Efficiency (full-length CHK2 [4]; Table 2): 0.28 kcal mol^−1 HA^−1; IC50 (full-length CHK2 [4]; [6]): 14.2 ± 8.6 µM |
| Nc1ncc(-c2ccsc2)cc1-c1ccc(C(=O)O)cc1 [Compound 27, 4-(2-amino-5-(thiophen-3-yl)pyridin-3-yl)benzoic acid, reference compound] | – | – | – | – | – | inhibition at 10 µM (full-length CHK2 [3]; concentration of 10 µM, read-out: AlphaScreen™ percentage inhibition, positive control): 62.7% |
| C/C(=N\NC(=N)N)c1ccc(NC(=O)c2cc3cccc([N+](=O)[O-])c3[nH]2)cc1 [PV1019, 7-nitro-1H-indole-2-carboxylic acid {4-[1-(guanidinohydrazone)-ethyl]-phenyl}-amide] | – | – | – | – | – | Antiproliferative effect (cancer cell lines): antiproliferative effect; Potentiation of the cytotoxicity of topotecan and campothecan ([2]; ovarian cancer cell lines): potentiation of the cytotoxicity |
| CC(CO)NC(=N)c1c(O)nsc1Nc1ccc(Nc2ccc(Br)cc2)cc1 (centres unmarked) [VRX0466617] | – | – | – | – | – | Potentiation in combination with genotoxic agents [2]: no such effects have been observed |
